Reference: ChEMBL document CHEMBL5247646, “Discovery of 2-Aminopyrimidines as Potent Agonists for the Bitter Taste Receptor TAS2R14” (J Med Chem, 2023)

What was measured:
Format in all cases: cell-based
[1] = biological target: T1, Taste receptor type 2 member 14 (Homo sapiens, UniProt Q9NYV8); experiment: Agonist activity at human TAS2R14 transfected in HEK293T cells assessed as IP1 accumulation measured after 150 mins by IP1 accumulation assay
T1 sequence (Q9NYV8 whole entry): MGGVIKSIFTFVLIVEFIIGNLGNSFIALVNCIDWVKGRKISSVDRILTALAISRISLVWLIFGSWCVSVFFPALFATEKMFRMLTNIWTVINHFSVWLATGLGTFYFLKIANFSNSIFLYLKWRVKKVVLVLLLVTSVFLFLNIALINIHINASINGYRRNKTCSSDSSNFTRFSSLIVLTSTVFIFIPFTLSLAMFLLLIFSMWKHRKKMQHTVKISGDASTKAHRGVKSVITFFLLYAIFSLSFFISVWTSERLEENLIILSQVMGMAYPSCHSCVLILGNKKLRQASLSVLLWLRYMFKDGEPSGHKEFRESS

[2] = biological target: T2, Taste receptor type 2 member 14 (Homo sapiens) (UniProt Q9NYV8); experiment: Partial agonist activity at human TAS2R14 transfected in HEK293T cells assessed as IP1 accumulation measured after 150 mins by IP1 accumulation assay relative to control; conditions: filed as partial agonist
T2 sequence (whole entry): T1 sequence (Q9NYV8 whole entry)

[3] = biological target: T1, Taste receptor type 2 member 14; experiment: Partial agonist activity at human TAS2R14 transfected in HEK293T cells assessed as IP1 accumulation measured after 150 mins by IP1 accumulation assay
[4] = biological target: T2, Taste receptor type 2 member 14 (Homo sapiens); experiment: Agonist activity at human TAS2R14 transfected in HEK293T cells assessed as IP1 accumulation at 30 uM measured after 150 mins by IP1 accumulation assay relative to flufenamic acid
[5] = biological target: T3, Alpha-2C adrenergic receptor (Homo sapiens, UniProt P18825); experiment: Displacement of [3H]RX821002 from human alpha2C receptor stably expressed in HEK293T cells by Cheng-Prusoff equation analysis
T3 sequence (P18825 whole entry): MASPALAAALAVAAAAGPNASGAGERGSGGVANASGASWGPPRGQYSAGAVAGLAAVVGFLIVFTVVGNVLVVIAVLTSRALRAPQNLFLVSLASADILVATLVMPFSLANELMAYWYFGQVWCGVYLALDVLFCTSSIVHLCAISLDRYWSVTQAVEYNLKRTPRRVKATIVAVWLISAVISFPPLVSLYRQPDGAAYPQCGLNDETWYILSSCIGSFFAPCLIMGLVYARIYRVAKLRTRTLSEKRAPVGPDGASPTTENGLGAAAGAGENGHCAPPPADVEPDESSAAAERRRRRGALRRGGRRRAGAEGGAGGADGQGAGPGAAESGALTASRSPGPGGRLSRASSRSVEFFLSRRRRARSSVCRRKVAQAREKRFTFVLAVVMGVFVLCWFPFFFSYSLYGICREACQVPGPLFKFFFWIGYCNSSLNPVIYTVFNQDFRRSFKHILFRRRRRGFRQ

[6] = biological target: T4, Alpha-2B adrenergic receptor (Homo sapiens, UniProt P18089); experiment: Displacement of [3H]RX821002 from human alpha2B receptor stably expressed in HEK293T cells by Cheng-Prusoff equation analysis
T4 sequence (P18089 whole entry): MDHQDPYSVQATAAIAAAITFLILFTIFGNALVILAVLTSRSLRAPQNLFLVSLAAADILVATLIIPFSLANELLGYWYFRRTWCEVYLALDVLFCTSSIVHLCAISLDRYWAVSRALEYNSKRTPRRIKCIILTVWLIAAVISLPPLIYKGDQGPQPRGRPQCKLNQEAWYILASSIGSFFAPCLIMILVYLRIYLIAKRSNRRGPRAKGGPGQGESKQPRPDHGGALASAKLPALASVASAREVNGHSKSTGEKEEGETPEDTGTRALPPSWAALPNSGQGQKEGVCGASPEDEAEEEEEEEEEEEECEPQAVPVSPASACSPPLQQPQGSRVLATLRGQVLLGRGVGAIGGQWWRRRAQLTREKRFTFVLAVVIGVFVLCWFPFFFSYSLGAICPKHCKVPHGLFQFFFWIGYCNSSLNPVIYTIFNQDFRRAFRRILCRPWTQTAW

D(2) dopamine receptor [7] = biological target: T5, D(2) dopamine receptor (Homo sapiens, UniProt P14416); experiment: Displacement of [3H]methylspiperone from human D2S receptor stably expressed in CHO cells by Cheng-Prusoff equation analysis
T5 sequence (P14416 whole entry): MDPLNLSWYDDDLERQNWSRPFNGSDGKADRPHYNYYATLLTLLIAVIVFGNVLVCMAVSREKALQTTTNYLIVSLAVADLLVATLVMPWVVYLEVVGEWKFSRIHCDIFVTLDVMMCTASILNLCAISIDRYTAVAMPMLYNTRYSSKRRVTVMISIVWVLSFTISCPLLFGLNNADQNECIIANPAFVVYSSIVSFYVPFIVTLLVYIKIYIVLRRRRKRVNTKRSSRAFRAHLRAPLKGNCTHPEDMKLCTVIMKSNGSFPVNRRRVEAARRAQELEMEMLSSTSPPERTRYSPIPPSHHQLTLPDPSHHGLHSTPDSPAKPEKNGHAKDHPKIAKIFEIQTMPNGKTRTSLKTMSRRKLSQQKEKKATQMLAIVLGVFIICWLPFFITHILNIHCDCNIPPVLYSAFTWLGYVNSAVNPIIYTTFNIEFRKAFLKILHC

D(3) dopamine receptor = D(3) dopamine receptor (Homo sapiens, UniProt P35462); experiment: Displacement of [3H]methylspiperone from human D3 receptor stably expressed in HEK293T cells by Cheng-Prusoff equation analysis
D(3) dopamine receptor, sequence (P35462 whole entry): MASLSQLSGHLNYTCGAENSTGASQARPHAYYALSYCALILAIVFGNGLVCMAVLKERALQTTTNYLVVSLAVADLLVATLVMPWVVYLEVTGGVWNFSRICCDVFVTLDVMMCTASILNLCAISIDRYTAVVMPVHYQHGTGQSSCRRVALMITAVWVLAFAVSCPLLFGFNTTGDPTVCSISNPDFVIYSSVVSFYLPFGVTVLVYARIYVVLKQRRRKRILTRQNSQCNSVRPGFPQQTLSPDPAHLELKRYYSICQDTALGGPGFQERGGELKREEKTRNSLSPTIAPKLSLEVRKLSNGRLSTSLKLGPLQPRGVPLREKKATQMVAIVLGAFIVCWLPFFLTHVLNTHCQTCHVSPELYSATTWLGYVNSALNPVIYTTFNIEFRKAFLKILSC

[8] = biological target: T6, Muscarinic acetylcholine receptor M2 (Homo sapiens, UniProt P08172); experiment: Displacement of [3H]NMS from human M2 receptor stably expressed in HEK293T cells by Cheng-Prusoff equation analysis
T6 sequence (P08172 whole entry): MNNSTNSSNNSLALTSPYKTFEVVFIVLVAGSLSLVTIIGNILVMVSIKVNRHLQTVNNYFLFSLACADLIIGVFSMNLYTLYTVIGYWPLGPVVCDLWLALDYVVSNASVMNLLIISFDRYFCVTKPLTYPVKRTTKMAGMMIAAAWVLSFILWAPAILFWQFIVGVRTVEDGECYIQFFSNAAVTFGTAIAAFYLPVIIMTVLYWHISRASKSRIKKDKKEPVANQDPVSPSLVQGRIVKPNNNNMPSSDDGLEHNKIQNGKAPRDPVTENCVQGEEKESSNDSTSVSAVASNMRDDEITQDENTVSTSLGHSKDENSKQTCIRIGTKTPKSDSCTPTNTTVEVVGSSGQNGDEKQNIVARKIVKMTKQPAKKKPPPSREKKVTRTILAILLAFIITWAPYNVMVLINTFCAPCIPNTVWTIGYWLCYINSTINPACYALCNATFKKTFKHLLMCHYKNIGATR

D(2) dopamine receptor [9] = biological target: T5, D(2) dopamine receptor; experiment: Displacement of [3H]methylspiperone from human D2L receptor stably expressed in CHO cells by Cheng-Prusoff equation analysis
[10] = biological target: T2, Taste receptor type 2 member 14 (Homo sapiens); experiment: Agonist activity at human TAS2R14 transfected in HEK293T cells assessed as IP1 accumulation at 10 uM measured after 150 mins by IP1 accumulation assay relative to flufenamic acid; conditions: filed as agonist

| SMILES | EC50 [1] | further results |
| --- | --- | --- |
| O=C(O)c1ccccc1Nc1nccc(C(F)(F)F)n1 | 1600 nM |  |
| O=C(O)c1ccccc1Nc1cccc(C(F)(F)F)c1Br | 2100 nM |  |
| FC(F)(F)c1cc(Nc2ccccc2-c2nnn[nH]2)cc(C(F)(F)F)c1 |  | Emax [2]: 80%; EC50 [3]: 100 nM |
| O=C(O)c1ccccc1Nc1cncc(C(F)(F)F)c1 | 1200 nM |  |
| Cc1c(Nc2ccccc2C(=O)O)cccc1C(F)(F)F | 1800 nM |  |
| O=C(O)c1cccc(Nc2cccc(C(F)(F)F)c2)c1 |  | Emax [4]: 27% |
| FC(F)(F)c1cc(Nc2ccccc2-c2nnn[nH]2)ccn1 | 3500 nM |  |
| FC(F)(F)c1nccc(Nc2ccccc2-c2nnn[nH]2)n1 | 1100 nM |  |
| O=C(O)c1ccccc1Nc1cc(C#CC2CCCC2)cc(C(F)(F)F)c1 |  | Emax ([4]; filed as agonist): 64% |
| CN(c1cccc(C(F)(F)F)c1)c1ccccc1C(=O)O |  | Emax ([4]; filed as agonist): 59% |
| Cc1cc(C(F)(F)F)nc(Nc2ccccc2-c2nnn[nH]2)n1 | 72 nM | Ki (D(2) dopamine receptor [7]): 7300 nM; Ki (D(3) dopamine receptor): 1100 nM; Ki [8]: 2300 nM; Ki (D(2) dopamine receptor [9]): 16000 nM |
| C#Cc1cc(C(F)(F)F)nc(Nc2ccccc2-c2nnn[nH]2)n1 | 1400 nM |  |
| O=C(O)c1ccccc1Nc1ccnc(C(F)(F)F)c1 |  | Emax [10]: 52% |
| Oc1cc(C(F)(F)F)nc(Nc2ccccc2-c2nnn[nH]2)n1 | 6800 nM |  |
| O=C(O)c1ccccc1Nc1cccc(OC(F)F)c1 | 930 nM |  |
| O=C(O)c1ccccc1Nc1cccc(Cl)c1 | 950 nM |  |

Continued by falling EC50 [1], values first:

| EC50 [1] | SMILES | further results |
| --- | --- | --- |
| 750 nM | FC(F)(F)c1cc(I)nc(Nc2ccccc2-c2nnn[nH]2)n1 |  |
| 670 nM | O=C(O)c1ccccc1Nc1cccc(C(F)(F)F)n1 |  |
| 640 nM | CC(C)(C)c1cc(C(F)(F)F)nc(Nc2ccccc2-c2nnn[nH]2)n1 |  |
| 640 nM | O=C(O)c1ccccc1Nc1cc(C(F)(F)F)ccc1Br |  |
| 540 nM | FC(F)(F)c1cc(Cl)nc(Nc2ccccc2-c2nnn[nH]2)n1 |  |
| 420 nM | N#Cc1ccc(C(F)(F)F)cc1Nc1ccccc1C(=O)O |  |
| 390 nM | Cc1ccc(C(F)(F)F)cc1Nc1ccccc1C(=O)O |  |
| 380 nM | CC#Cc1cc(Nc2ccccc2C(=O)O)cc(C(F)(F)F)c1 |  |
| 360 nM | FC(F)(F)c1ccnc(Nc2ccccc2-c2nnn[nH]2)c1 |  |
| 330 nM | Cc1ccc(Nc2ccccc2C(=O)O)cc1C(F)(F)F |  |
| 300 nM | O=C(O)c1ccccc1Nc1ccc(Br)c(C(F)(F)F)c1 |  |
| 300 nM | N#Cc1cc(C(F)(F)F)nc(Nc2ccccc2-c2nnn[nH]2)n1 |  |
| 230 nM | O=C(O)c1ccccc1Nc1cc(Br)cc(C(F)(F)F)c1 |  |
| 190 nM | O=C(O)c1ccccc1Nc1cccc(S(F)(F)(F)(F)F)c1 |  |
| 190 nM | Cc1cc(Nc2ccccc2C(=O)O)cc(C(F)(F)F)c1 |  |
| 180 nM | N#Cc1cc(Nc2ccccc2C(=O)O)cc(C(F)(F)F)c1 |  |
| 170 nM | N#Cc1ccc(Nc2ccccc2C(=O)O)cc1C(F)(F)F |  |
| 160 nM | FC(F)(F)c1ccnc(Nc2ccccc2-c2nnn[nH]2)n1 |  |
| 150 nM | C#Cc1cc(Nc2ccccc2C(=O)O)cc(C(F)(F)F)c1 | Ki [5]: 17000 nM; Ki [6]: 16000 nM |
| 98 nM | FC(F)(F)c1cccc(Nc2ccccc2-c2nnn[nH]2)n1 |  |
